Data reported in patent US10364256B2 (GlaxoSmithKline Intellectual Property Development Limited, priority 2015, dated 2019).

Experiments:
[1] = target: T1, full length Keap1 protein / full length NRF2 protein (Homo sapiens, UniProt Q14145); assay: NRF2-Keap1 TR-FRET Assay; assay type: binding; settings: 25 nM Keap1-FlagHis and 50 nM biotin-NRF2 added
T1 construct: full length NRF2 protein and full length Keap1 protein (Keap1 exists a dimer) are used; His
Summary of the method: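 Full-length Keap1-FlagHis preincubated with compound 2.25 h at 37 °C, then biotin-NRF2 added for 1.25 h at 4 °C, in Tris pH 8.0 with MgCl2, NaCl, BSA, DTT, CHAPS. TR-FRET 665/615 nm ratio normalised to with- and without-protein 1% DMSO controls; pIC50 from four-parameter fit.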

[2] = target: T1, full length Keap1 protein / full length NRF2 protein; assay: NRF2-Keap1 TR-FRET Low Protein Assay; assay type: binding; settings: 1.25 nM Keap1 FlagHis and 2.5 nM biotin-NRF2 added
Summary of the method: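 Flag-tagged full-length Keap1 was preincubated with compound (3-fold series) for 2.25 h at 37 °C in Tris pH 8.0/MgCl2/NaCl/BSA/DTT/CHAPS. Biotin-Avi-NRF2 (added at 2.5 nM) was then bound for 1.25 h at 4 °C. Eu-streptavidin/anti-Flag-APC TR-FRET (665/615 nm) was read after 1 h at RT, and pIC50 came from a four-parameter fit.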

T1 sequence (Q14145 whole entry): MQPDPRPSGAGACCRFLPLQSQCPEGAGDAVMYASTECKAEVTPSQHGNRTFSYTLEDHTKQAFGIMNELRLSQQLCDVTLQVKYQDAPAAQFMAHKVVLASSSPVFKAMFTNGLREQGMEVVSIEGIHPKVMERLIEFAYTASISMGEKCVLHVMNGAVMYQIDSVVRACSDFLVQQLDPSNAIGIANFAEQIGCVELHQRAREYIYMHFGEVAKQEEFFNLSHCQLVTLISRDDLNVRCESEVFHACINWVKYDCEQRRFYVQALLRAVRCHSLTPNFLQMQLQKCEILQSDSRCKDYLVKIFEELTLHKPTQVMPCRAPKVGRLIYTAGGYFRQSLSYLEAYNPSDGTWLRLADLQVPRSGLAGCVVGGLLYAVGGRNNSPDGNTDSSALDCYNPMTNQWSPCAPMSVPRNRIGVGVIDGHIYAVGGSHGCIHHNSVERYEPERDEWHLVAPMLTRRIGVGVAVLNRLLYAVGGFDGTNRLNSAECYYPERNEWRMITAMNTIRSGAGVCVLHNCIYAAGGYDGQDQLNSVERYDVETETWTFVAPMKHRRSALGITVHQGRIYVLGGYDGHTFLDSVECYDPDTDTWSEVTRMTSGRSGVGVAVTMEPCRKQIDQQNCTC

Row | IC50 [1] | IC50 [2] | SMILES
1 | 100 to 1000 nM | 10 to 100 nM | CC(CC1CCCCC1)Oc1cccc(-c2cccc(-n3ncc(C(=O)O)c3C3CC3c3cn(C)nn3)c2)c1 (stereo not drawn) [Example 218, 1-(3′-((1-Cyclohexylpropan-2-yl)oxy)-[1,1′-biphenyl]-3-yl)-5-(2-(1-methyl-1H-1,2,3-triazol-4-yl)cyclopropyl)-1H-pyrazole-4-carboxylic Acid]
2 | 10 to 100 nM | < 10 nM | CCC[C@@H]1CCCCN1C(=O)c1cccc(-c2cccc(-n3ncc(C(=O)O)c3C3CC3c3cnn(C)c3)c2)c1F (stereo partly drawn) [Example 214, 1-(2′-Fluoro-3′-((R)-2-propylpiperidine-1-carbonyl)-[1,1′-biphenyl]-3-yl)-5-(2-(1-methyl-1H-pyrazol-4-yl)cyclopropyl)-1H-pyrazole-4-carboxylic Acid]
3 | 100 to 1000 nM | 10 to 100 nM | CCC[C@@H]1CCCCN1C(=O)c1cccc(-c2cccc(-n3ncc(C(=O)O)c3C3CC3(F)F)c2)c1 (stereo partly drawn) [Example 67, 5-(2,2-Difluorocyclopropyl)-1-(3′-((R)-2-propylpiperidine-1-carbonyl)-[1,1′-biphenyl]-3-yl)-1H-pyrazole-4-carboxylic Acid]
4 | 100 to 1000 nM | 10 to 100 nM | CC(Oc1cccc(-c2cccc(-n3ncc(C(=O)O)c3C3CC3c3cn(C)nn3)c2)c1)C1CCCCC1 (stereo not drawn) [Example 219, 1-(3′-(1-Cyclohexylethoxy)-[1,1′-biphenyl]-3-yl)-5-(2-(1-methyl-1H-1,2,3-triazol-4-yl)cyclopropyl)-1H-pyrazole-4-carboxylic acid]
5 | 10 to 100 nM | < 10 nM | CCC[C@@H]1CCCCN1C(=O)c1cccc(-c2cccc(-n3ncc(C(=O)O)c3[C@H]3C[C@@H]3c3cn(CC)nn3)c2)c1 (racemic) [Example 201, 5-((1,2-trans)-2-(1-Ethyl-1H-1,2,3-triazol-4-yl)cyclopropyl)-1-(3′-((R)-2-propylpiperidine-1-carbonyl)-[1,1′-biphenyl]-3-yl)-1H-pyrazole-4-carboxylic acid]
6 | 100 to 1000 nM | 10 to 100 nM | Cn1cc([C@H]2C[C@@H]2c2c(C(=O)O)cnn2-c2cccc(-c3cccc(OCC4CCCC(Cl)C4)c3)c2)nn1 (mixture of isomers) [Example 187, 1-(3′-((3-chlorocyclohexyl)methoxy)-[1,1′-biphenyl]-3-yl)-5-((1,2-trans)-2-(1-methyl-1H-1,2,3-triazol-4-yl)cyclopropyl)-1H-pyrazole-4-carboxylic acid]
7 | 1000 to 10000 nM | 100 to 1000 nM | O=C(O)c1cnn(-c2cccc(-c3cccc(-n4ncc5c4CCCC5)c3)c2)c1C1CC1 [Example 62, 5-cyclopropyl-1-(3′-(4,5,6,7-tetrahydro-1H-indazol-1-yl)-[1,1′-biphenyl]-3-yl)-1H-pyrazole-4-carboxylic Acid]
8 | 100 to 1000 nM | 10 to 100 nM | Cn1cc([C@@H]2C[C@H]2c2c(C(=O)O)cnn2-c2cccc(-c3cccc(OCC4CCCCC4)c3)c2)nn1 [Example 171, 1-(3′-(Cyclohexylmethoxy)-[1,1′-biphenyl]-3-yl)-5-((1R,2R)-2-(1-methyl-1H-1,2,3-triazol-4-yl)cyclopropyl)-1H-pyrazole-4-carboxylic acid]
9 | 100 to 1000 nM | 100 to 1000 nM | Cn1cc(C2CC2c2c(C(=O)O)cnn2-c2cccc(-c3cccc(OCc4ccccc4)c3)c2)nn1 (stereo not drawn) [Example 221]
10 | > 100000 nM | 10000 to 100000 nM | Cc1nnc(-c2cccc(-c3cccc(-n4ncc(C(=O)O)c4C4CC4)c3)c2)o1 [Example 210, 5S-Cyclopropyl-1-(3′-(5-methyl-1,3,4-oxadiazol-2-yl)-[1,1′-biphenyl]-3-yl)-1H-pyrazole-4-carboxylic acid]
11 | 100 to 1000 nM | 10 to 100 nM | CO[C@H]1CC[C@H](COc2cccc(-c3cccc(-n4ncc(C(=O)O)c4[C@H]4C[C@@H]4c4cn(C)nn4)c3)c2)CC1 (racemic) [Example 176, 1-(3′-(((1R,4S)-4-Methoxycyclohexyl)methoxy)-[1,1′-biphenyl]-3-yl)-5-((1,2-trans)-2-(1-methyl-1H-1,2,3-triazol-4-yl)cyclopropyl)-1H-pyrazole-4-carboxylic acid]
12 | 10 to 100 nM | < 10 nM | CCC[C@@H]1CCCCN1C(=O)c1cccc(-c2cccc(-n3ncc(C(=O)O)c3[C@@H]3C[C@H]3c3cn(C)nn3)c2)c1 [Example 51h, 5-[(1R,2R)-2-(1-methyl-1H-1,2,3-triazol-4-yl)cyclopropyl]-1-(3-{3-[(2R)-2-propylpiperidine-1-carbonyl]phenyl}phenyl)-1H-pyrazole-4-carboxylic Acid]
13 | 10 to 100 nM | < 10 nM | CCC[C@@H]1CCCCN1C(=O)c1cncc(-c2cccc(-n3ncc(C(=O)O)c3C3CC3c3cn(C)nn3)c2)c1 (stereo partly drawn) [Example 197, 5-(2-(1-Methyl-1H-1,2,3-triazol-4-yl)cyclopropyl)-1-(3-(5-((R)-2-propylpiperidine-1-carbonyl)pyridin-3-yl)phenyl)-1H-pyrazole-4-carboxylic acid]
14 | 10 to 100 nM | < 10 nM | CCCC1CCCCN1C(=O)c1cccc(-c2cccc(-n3ncc(C(=O)O)c3C3CC3c3cn(C)nn3)c2)c1 (stereo not drawn) [Example 42, 5-[2-(1-methyl-1H-1,2,3-triazol-4-yl)cyclopropyl]-1-{3-[3-(2-propylpiperidine-1-carbonyl)phenyl]phenyl}-1H-pyrazole-4-carboxylic Acid]
15 | 100 to 1000 nM | 10 to 100 nM | Cn1cc(C2CC2c2c(C(=O)O)cnn2-c2cccc(-c3cccc(C(=O)CC4CCCCC4)c3)c2)nn1 (stereo not drawn) [Example 215, 1-(3′-(2-Cyclohexylacetyl)-[1,1′-biphenyl]-3-yl)-5-(2-(1-methyl-1H-1,2,3-triazol-4-yl)cyclopropyl)-1H-pyrazole-4-carboxylic Acid]
16 | 100 to 1000 nM | 10 to 100 nM | Cn1cc([C@H]2C[C@@H]2c2c(C(=O)O)cnn2-c2cccc(-c3cccc(OC[C@H]4CC[C@H](Cl)CC4)c3)c2)nn1 (racemic) [Example 185, 1-(3′-((4-Chlorocyclohexyl)methoxy)-[1,1′-biphenyl]-3-yl)-5-((1,2-trans)-2-(1-methyl-1H-1,2,3-triazol-4-yl)cyclopropyl)-1H-pyrazole-4-carboxylic Acid]
17 | 100 to 1000 nM | 10 to 100 nM | Cn1cc(C2CC2c2c(C(=O)O)cnn2-c2cccc(-c3cccc(SCC4CCCCC4)c3)c2)nn1 (stereo not drawn) [Example 179, 1-(3′-((Cyclohexylmethyl)thio)-[1,1′-biphenyl]-3-yl)-5-(2-(1-methyl-1H-1,2,3-triazol-4-yl)cyclopropyl)-1H-pyrazole-4-carboxylic acid]
18 | 100 to 1000 nM | 10 to 100 nM | O=C(O)c1cnn(-c2cccc(-c3cccc(C(=O)N(CC4CCCC4)CC4CC4)c3F)c2)c1C1CC1 [Example 14, 1-(3-{3-[(Cyclopentylmethyl)(cyclopropylmethyl)carbamoyl]-2-fluorophenyl}phenyl)-5-cyclopropyl-1H-pyrazole-4-carboxylic Acid]
19 | 100 to 1000 nM | 10 to 100 nM | Cn1cc(C2CC2c2c(C(=O)O)cnn2-c2cccc(-c3cccc(C(O)CC4CCCCC4)c3)c2)nn1 (stereo not drawn) [Example 217, 1-(3′-(2-Cyclohexyl-1-hydroxyethyl)-[1,1′-biphenyl]-3-yl)-5-(2-(1-methyl-1H-1,2,3-triazol-4-yl)cyclopropyl)-1H-pyrazole-4-carboxylic acid]
20 | 10 to 100 nM | < 10 nM | CCC[C@@H]1CCCCN1C(=O)c1cccc(-c2cc(Cl)cc(-n3ncc(C(=O)O)c3C3CC3c3cn(C)nn3)c2)c1 (stereo partly drawn) [Example 160, 1-(5-Chloro-3′-((R)-2-propylpiperidine-1-carbonyl)-[1,1′-biphenyl]-3-yl)-5-(2-(1-methyl-1H-1,2,3-triazol-4-yl)cyclopropyl)-1H-pyrazole-4-carboxylic Acid Compound with 2,2,2-trifluoroacetic Acid (1:1)]
21 | 100 to 1000 nM | 10 to 100 nM | Cn1cc(C2CC2c2c(C(=O)O)cnn2-c2cccc(-c3cccc(OCC4CCCCC4)c3)c2)nn1 (stereo not drawn) [Example 164, 1-(3′-(Cyclohexylmethoxy)-[1,1′-biphenyl]-3-yl)-5-(2-(1-methyl-1H-1,2,3-triazol-4-yl)cyclopropyl)-1H-pyrazole-4-carboxylic acid]
22 | 10 to 100 nM | < 10 nM | CCCC1CCCCN1C(=O)c1cccc(-c2cccc(-n3ncc(C(=O)O)c3C3CC3c3cccnn3)c2)c1 (stereo not drawn) [Example 41, 1-[3′-(2-Propyl-piperidine-1-carbonyl)-biphenyl-3-yl]-5-(2-pyridazin-3-yl-cyclopropyl)-1H-pyrazole-4-carboxylic Acid]
23 | 1000 to 10000 nM | 100 to 1000 nM | Cn1cc([C@H]2C[C@@H]2c2c(C(=O)O)cnn2-c2cccc(-c3cccc(OCc4cccc(-c5ccccc5)c4)c3)c2)nn1 (racemic) [Example 238, 1-(3′-([1,1′-Biphenyl]-3-ylmethoxy)-[1,1′-biphenyl]-3-yl)-5-((1,2- trans)-2-(1-methyl-1H-1,2,3-triazol-4-yl)cyclopropyl)-1H-pyrazole-4-carboxylic acid]

Row | SMILES | IC50 [1] | IC50 [2]
24 | Cn1cc(C2CC2c2c(C(=O)O)cnn2-c2cccc(-c3cccc(OC4CCCN(C(=O)OC(C)(C)C)C4)c3)c2)nn1 (stereo not drawn) [Example 232, 1-(3′-((1-(tert-Butoxycarbonyl)piperidin-3-yl)oxy)-[1,1′-biphenyl]-3-yl)-5-(2-(1-methyl-1H-1,2,3-triazol-4-yl)cyclopropyl)-1H-pyrazole-4-carboxylic acid] | 10 to 100 nM | 10 to 100 nM
